{"source": "PubChem BioAssay AID2305", "about": "(GlaxoSmithKline (GSK), 2010)", "data": [{"test_system": "P. falciparum 3D7 growth, pLDH absorbance", "assay": "blood-stage malaria parasite growth potency – strain 3D7, dose response (AID 2305)", "units": {"IC50": "nM"}, "values": [{"smiles": "COc1ccc(C(=O)NCc2ccc(N)nc2C)cc1Nc1ncc(-c2cccc(N(C)C)c2)cn1", "IC50": 900}, {"smiles": "COC(=O)C(=C(C)C)N1C(=O)[C@@H](NC(=O)OCc2ccccc2)[C@H]1SS[C@@H]1[C@H](NC(=O)OCc2ccccc2)C(=O)N1C(C(=O)OC)=C(C)C", "IC50": 430}, {"smiles": "O=C(CNC1CCCCC1)Nc1cccc(C(=O)Nc2cccc(C(F)(F)F)c2)c1", "IC50": 420}, {"smiles": "CSc1nc2cc3c(cc2n1C(=O)c1ccc(C)cc1)OCCO3", "IC50": 170}, {"smiles": "Cc1noc(C)c1-c1cccc(CNCc2ccc(-c3cccc(-c4nc5c(C)cccc5[nH]4)c3)cc2)c1", "IC50": 220}, {"smiles": "N#Cc1ccc(-c2ccc(C(=O)NCCCCN3CCC(c4ccc5c(c4OCC(N)=O)CCCC5)CC3)nc2)cc1", "IC50": 730}, {"smiles": "N=C(N)c1cccc(-c2cc(-c3cccc(C(=N)N)c3)on2)c1", "IC50": 90}, {"smiles": "Oc1ccc(Cl)c2c1C(c1ccccc1)=NCC2", "IC50": 540}, {"smiles": "CC(C)(C)c1ccc(CN2CCC(CNC(=O)c3cc(-c4cccc(F)c4)cs3)C2)cc1", "note": "(centres undefined)", "IC50": 900}, {"smiles": "Cc1ccnc(NC(c2cccc(Cl)c2Cl)c2ccc3cccnc3c2O)c1", "note": "(centres undefined)", "IC50": 1000}, {"smiles": "COc1ccc2nccc([C@H](O)CN3CCC(NCc4nc5c(F)cccc5[nH]4)CC3)c2c1", "IC50": 710}, {"smiles": "CNCCNCc1cccc(-c2ccc(-c3nc4c(C)cccc4[nH]3)s2)c1", "IC50": 950}, {"smiles": "CC(C)(C)c1ccc(NC(=O)c2ccc(CN3CCCN(Cc4cccc(C#N)c4)CC3)cc2)cc1", "IC50": 640}, {"smiles": "CCN1CCC(N(Cc2ccc(-c3ccc(C(F)(F)F)cc3)cc2)C(=O)Cn2c(CCc3cccc(F)c3F)cc(=O)c3ccccc32)CC1", "IC50": 830}, {"smiles": "CC(C)(C)c1ccc(NC(=O)c2cccc(CN3CCCN(Cc4cccc(Cl)c4)CC3)c2)cc1", "IC50": 1000}, {"smiles": "O=c1cc(NCCCNCc2cc(C(F)(F)F)ccc2Cl)[nH]c2ccccc12", "IC50": 1020}, {"smiles": "COCc1ccc(CN2CCC(C(=O)Nc3ccc(-c4nc5ccccc5[nH]4)cc3)CC2)o1", "IC50": 850}, {"smiles": "COc1ccc(S(=O)(=O)Nc2cc(Br)cc3c2OCCC3)cc1N1CCN(C(=O)C(Cl)(Cl)Cl)CC1", "IC50": 870}, {"smiles": "CS(=O)(=O)CCNCc1ccc(-c2cc3c(Nc4ccc(OCc5cccc(F)c5)c(Cl)c4)ncnc3s2)[nH]1", "IC50": 840}, {"smiles": "COc1ccc2nccc(NC(=O)CNCc3ccc(-c4ccccc4)cc3)c2c1", "IC50": 770}, {"smiles": "c1ccn2c(Sc3ncnc4sccc34)ncc2c1", "IC50": 660}, {"smiles": "Cc1cccc2[nH]c(-c3ccc(-c4cccc(NCc5cn6cccnc6n5)c4)cc3)nc12", "IC50": 790}, {"smiles": "Cc1nc2nc(N)nc(N)c2c(C)c1Cc1ccc([N+](=O)[O-])cc1", "IC50": 440}, {"smiles": "COc1cc(NC(=O)c2sc(-c3ccc(Cl)cc3)cc2Cl)ccc1OCCN1CCCC1", "IC50": 980}, {"smiles": "COC(=O)C(C)(C)c1ccc(CC(C)NCC(O)c2cccc(C(F)(F)F)c2)cc1", "note": "(centres undefined)", "IC50": 840}, {"smiles": "Cc1cc(NCCCOc2ccc(Cl)cc2)nc(NCc2ccccc2)n1", "IC50": 780}, {"smiles": "O=C(/C=C/c1ccc(Cl)c(Cl)c1)NC1CCN(Cc2ccc(O)cc2)C1", "note": "(centres undefined)", "IC50": 950}, {"smiles": "CC(C)(C)c1ccc(CN2CCC(NC(=O)c3ccc(-c4cccc(F)c4)s3)CC2)cc1", "IC50": 1090}, {"smiles": "CCN(CC)CCN(Cc1ccc(-c2ccc(C(F)(F)F)cc2)cc1)C(=O)c1ccc(-c2ccc(C#N)cc2)cc1", "IC50": 1110}, {"smiles": "Cc1cc(-c2ccc(CNCc3ccsc3)cc2)ccc1S(=O)(=O)NCCN1CCCC1", "IC50": 720}, {"smiles": "COc1ccc(C[C@@H](C)NC[C@H](O)c2cccc(Cl)c2)cc1F", "IC50": 870}, {"smiles": "Oc1ccccc1-c1nc2cccnc2n1CCc1cccc(C(F)(F)F)c1", "IC50": 1270}, {"smiles": "Cc1cccc(C(=O)Nc2ccnc(N(C)CCCN(C)Cc3cccc(O)c3)c2)c1", "IC50": 970}, {"smiles": "CCOC(=O)c1cn(CC)c2cc(OCc3ccccc3)ccc2c1=O", "IC50": 950}, {"smiles": "COc1ccccc1CC1CCCN(C2CCC(NC(=O)c3cc4ccccc4[nH]3)CC2)C1", "note": "(centres undefined)", "IC50": 840}, {"smiles": "O=C(Nc1ccc(Cl)c(Cl)c1)N1CCC(CN2CCC(c3c[nH]c4ccccc34)CC2)CC1", "IC50": 290}, {"smiles": "CCC(=O)Nc1ccc(C(O)CN2CCC3(C=Cc4ccccc4O3)CC2)cc1", "note": "(centres undefined)", "IC50": 1200}, {"smiles": "O=C(Nc1cccc(-c2nn3ccccc3c2-c2ccnc(Nc3ccccc3)n2)c1)c1c(F)cccc1F", "IC50": 720}, {"smiles": "Cc1cc(NC(=O)Nc2cccc(Cl)c2Cl)c2ccccc2n1", "IC50": 740}]}]}
